Assay [1] has as its target T1, human soluble TNFR1 (sTNFR1) (Homo sapiens, UniProt P19438).
T1 construct: made in house; host or cells: Sf21 (baculovirus)
T1 sequence (P19438 with tags, fused parts or gaps): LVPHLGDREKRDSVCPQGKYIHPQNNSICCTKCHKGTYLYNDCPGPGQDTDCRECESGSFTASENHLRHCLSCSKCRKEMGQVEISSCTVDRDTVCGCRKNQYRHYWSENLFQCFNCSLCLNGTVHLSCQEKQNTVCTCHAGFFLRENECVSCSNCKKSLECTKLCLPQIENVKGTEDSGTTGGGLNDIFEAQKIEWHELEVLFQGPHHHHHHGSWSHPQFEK
Put plainly: Human sTNFR1-peptide displacement assay (LanthaScreen Eu TR-FRET binding assay). The gist of the method: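 Readout is the 665/615 nm TR-FRET ratio (Eu anti-His donor, streptavidin-Alexa647 acceptor), normalized to DMSO and saturating displacer, fit by Morrison-based five-parameter logistic for Kd^app. His-tagged sTNFR1 (1-211) prebound to 100 nM biotinylated peptide SEQ ID NO.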
A general note: TR-FRET usually uses a lanthanide donor and a delayed reading to cut background.

Assay [2] addresses T2, human TNFR1 extracellular domain (ECD) protein (Homo sapiens, UniProt P19438).
T2 construct: HRV 3C protease cleavage site (C); 6His (C, cleaved yes); made in house; host or cells: Sf21 insect cells (baculovirus), secreted
T2 sequence (P19438 30-211): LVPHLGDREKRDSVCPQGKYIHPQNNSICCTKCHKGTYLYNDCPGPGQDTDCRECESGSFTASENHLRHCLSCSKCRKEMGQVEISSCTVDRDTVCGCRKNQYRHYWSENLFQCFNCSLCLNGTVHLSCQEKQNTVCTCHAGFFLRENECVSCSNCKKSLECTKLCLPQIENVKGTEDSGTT
Put plainly: SPR binding affinity to captured human TNFR1 ECD. The gist of the method:
(§1)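 SPR kinetics: peptides over captured avi-biotinylated receptor ECDs, TNFR1 for affinity, TNFR2 run in parallel for off-target binding. Running buffer HEPES pH 7.4 with 150 mM NaCl, 3 mM EDTA, 0.05% P20, 2% DMSO; surface regenerated between analytes. Affinity derived from kon/koff.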
In general terms: SPR reads the build-up and loss of mass on a sensor chip optically.

In another assay the target is T3, human TNFR2 ECD protein (Homo sapiens, UniProt P20333).
T3 construct: HRV 3C protease cleavage site (C); 6His (C, cleaved yes); made in house; host or cells: Sf21 insect cells (baculovirus), secreted
T3 sequence (P20333 23-257): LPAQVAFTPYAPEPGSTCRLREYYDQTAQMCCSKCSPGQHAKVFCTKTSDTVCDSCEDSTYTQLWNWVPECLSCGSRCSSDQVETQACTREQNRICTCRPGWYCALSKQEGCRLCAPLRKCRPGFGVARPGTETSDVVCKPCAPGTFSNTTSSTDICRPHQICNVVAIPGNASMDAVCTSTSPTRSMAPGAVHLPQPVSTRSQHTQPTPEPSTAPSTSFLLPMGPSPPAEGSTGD
The experiment in a line: SPR off-target binding (selectivity) to human TNFR2 ECD. The gist of the method:
as §1

Molecules are shown by their SMILES. Numbered stars: 1 amine (or outer) side, 2 acyl side, 3 side chain; on linkers, the order of the positions; unused ones are H or OH. Square brackets hold non-standard residues; d marks the D form. Peptide text beside a SMILES is read from it. Trp(βS-Me,7-OMe) = COc1cccc2c([C@H](C)[C@H](N)C(=O)O)c[nH]c12; Trp(7-CN) = N#Cc1cccc2c(C[C@H](N)C(=O)O)c[nH]c12; Phe(4-CONH2) = NC(=O)c1ccc(C[C@H](N)C(=O)O)cc1; Phe(4-COOH) = N[C@@H](Cc1ccc(C(=O)O)cc1)C(=O)O; Pip(5R-OH) = O=C(O)[C@@H]1CC[C@@H](O)CN1; X1 = O=C([C@@H]1CC[C@H](N[*:1])C1)[*:2]; 4Pal = N[C@@H](Cc1ccncc1)C(=O)O; dHyp = O=C(O)[C@H]1C[C@H](O)CN1; hSer = N[C@@H](CCO)C(=O)O; αMeS = C[C@](N)(CO)C(=O)O; Sar = CNCC(=O)O

Usually Kd stands for the equilibrium constant for the complex coming apart. A lower Kd goes with a tighter complex.

`COCC[C@@H]1NC(=O)[C@@H]2CC[C@@H](C2)NC(=O)[C@H]([C@@H](C)c2c[nH]c3c(OC)cccc23)NC(=O)CN(C)C(=O)[C@H](Cc2ccc(C(N)=O)cc2)NC(=O)[C@H](Cc2ccc(C(N)=O)cc2)NC(=O)[C@](C)(CO)NC(=O)[C@H](Cc2c[nH]c3c(C#N)cccc23)NC(=O)[C@H](Cc2ccc(C(=O)O)cc2)NC(=O)[C@H](CC(N)=O)NC(=O)[C@H]2C[C@H](O)CN2C(=O)[C@H](Cc2c[nH]c3ccccc23)NC(=O)[C@@H]2CC[C@@H](O)CN2C(=O)[C@H](Cc2ccncc2)NC1=O` [SEQ ID NO. 194] (cyclo([4Pal][Pip(5R-OH)]W[dHyp]N[Phe(4-COOH)][Trp(7-CN)][αMeS][Phe(4-CONH2)][Phe(4-CONH2)][Sar][Trp(βS-Me,7-OMe)][X1][hSer](Me))): the Kd in assay [1] is 0.05 nM; in assay [2], 0.04 nM; on human TNFR2 ECD protein, more than 1000 nM.
